What follows are compounds tested on Myotonic Dystrophy 1 affected patient fibroblasts (Coriel GM04602; 1600 CTG repeats) (assay: DM1 foci reduction assay (EC50 assay; CAG10-Cy3 FISH, foci per nucleus)). Conditions: Homo sapiens, Fibroblast; DM1 patient fibroblasts, 48 h treatment, foci per nucleus; read-out: DM1 EC50, 48 h.
Assay type: cell-based
Description: DM1 Foci Reduction Assay Methods
Myotonic Dystrophy 1 affected patient fibroblasts (Coriel GM04602; 1600 CTG repeats) and wild type fibroblasts (Coriell GM07492; control line) were cultured separately in Gibco DMEM (1×)+4.5 g/L D-Glucose+L-Glutamine+[…] Sodium Pyruvate, supplemented with 10% FBS and 1× Pen/Strep. Cells were maintained in an incubator at 37° C. and 5% CO2 with media refreshed every 48-72 hours.
At 90-95% confluency, both cell lines were harvested using Trypl-E then pelleted at 500×g for 5 minutes and were resuspended in fresh media. DM1 fibroblasts were seeded in Agilent 96 well black plates at a density of 5,000 cells/well in 200 μL media; and 8 wells were reserved for control fibroblasts. Plates were returned to incubator for 24 hours at 37° C. and 5% CO2.
Compounds were diluted from 10 mM stock to 1 mM in DMSO and then diluted once more to 6 μM (2× concentration) in media. Media was removed from all plates and cells were replenished with 100 μL media. Cells were treated in 8-point dose response, 1:3 fold dilution, 3 μM top dose via addition of 100 μL of 6 μM (2× concentration) compound to the 100 μL media with cells. Plates were returned to incubator for 48 hours at 37° C. and 5% CO2.
Following treatment, compounds were removed, and plates were washed with PBS, then cells were fixed in 75 μL 4% PFA solution for 20 minutes at room temperature. Plates were washed twice with PBS and twice with cold 70% ethanol before permeabilization with 250 μL cold 70% ethanol for 24-72 hours at −20° C.
After permeabilization, plates were washed once with a 30% formamide and 2×SSC buffer and rehydrated in that buffer for 15 minutes at room temperature. Cells were incubated overnight at 37° C. in 75 μL of a hybridization solution containing 30% formamide, 2×SSC, 25 mg/mL dextran sulfate, 2.5 mg/mL BSA, 0.2 μg/mL Herring sperm DNA, 2 mM vanadyl-ribonucleoside complex, and 5 nM CAG10-Cy3 probe.
Plates were washed once with 30% formamide in 2×SSC buffer, then twice with the buffer for 30 minutes at 37° C., 300 RPM in an incubating plate shaker. Cells were stained with 75 μL of 2.5 μg/mL DAPI in PBS for 5 minutes at room temperature. Plates were then washed twice with PBS and stored in 250 μL PBS. Plates were sealed with adhesive foil and wiped down with 70% ethanol.
Cells were imaged on a Cytation5 with a 20× objective sampling from 4 areas of each well. Nuclei were captured under DAPI channel and foci under RFP channel. Plates were analyzed on an average foci per nucleus per well basis.

| Compound | EC50 [nM] |
| --- | --- |
| Cn1cc(NC(=O)c2nc(NC(=O)CCNC(=O)c3cc(NC(=O)c4nccn4C)cn3C)cn2C)cc1C(=O)NCCCC(=O)Nc1cn(C)c(C(=O)NCCC(=O)Nc2cc(C(=O)Nc3cn(C)c(C(=O)NCCC(=O)NCCOCCOCCOc4ccc(NC(=O)OCc5ccccc5)cc4)n3)n(C)c2)n1 [Compound B-13] | > 1000 |
| CC(=O)NCCCCCCn1cc(NC(=O)c2nc(NC(=O)CCNC(=O)c3cc(NC(=O)c4nccn4C)cn3C)cn2C)cc1C(=O)NCCCC(=O)Nc1cn(C)c(C(=O)NCCC(=O)Nc2cc(C(=O)Nc3cn(C)c(C(=O)NCCC(=O)N4CCC(C#CC#CC5CCNCC5)CC4)n3)n(C)c2)n1 [Compound B-294] | < 100 |
| CCOC(=O)CCNC(=O)c1nc(NC(=O)c2cc(NC(=O)CCNC(=O)c3nc(NC(=O)CCCNC(=O)c4cc(NC(=O)c5nc(NC(=O)CCNC(=O)c6cc(NC(=O)c7nccn7C)cn6C)cn5C)cn4C)cn3C)cn2C)cn1C [Compound B-65] | 100 to 500 |
| Cn1cc(NC(=O)c2nc(NC(=O)CCNC(=O)c3cc(NC(=O)c4nccn4C)cn3C)cn2C)cc1C(=O)NCCCC(=O)Nc1cn(C)c(C(=O)NCCC(=O)Nc2cc(C(=O)NCCOCCOCCOCCN3CCC(C#CC#CC4CCN(C(=O)OC(C)(C)C)CC4)CC3)n(C)c2)n1 [Compound B-210] | > 1000 |
| CCN(CC)CCCC[C@H](NC(=O)c1cccc(C(=O)O)c1)C(=O)NCCOCCOCCOCCOCCOCCNC(=O)CCNC(=O)c1nc(NC(=O)c2cc(NC(=O)CCNC(=O)c3nc(NC(=O)CCCNC(=O)c4cc(NC(=O)c5nc(NC(=O)CCNC(=O)c6cc(NC(=O)c7nccn7C)cn6C)cn5C)cn4C)cn3C)cn2C)cn1C [Compound B-222] | 500 to 1000 |
| COCCOCCOCCOCCOCCOCCNC(=O)c1nc(NC(=O)c2cc(NC(=O)CCNC(=O)c3nc(NC(=O)CCCNC(=O)c4cc(NC(=O)c5nc(NC(=O)CCNC(=O)c6cc(NC(=O)c7nccn7C)cn6C)cn5C)cn4C)cn3C)cn2C)cn1C [Compound B-204] | 500 to 1000 |
| CN(C)CCCCCNC(=O)CCNC(=O)c1nc(NC(=O)c2cc(NC(=O)CCNC(=O)c3nc(NC(=O)CCCNC(=O)c4cc(NC(=O)c5nc(NC(=O)CCNC(=O)c6cc(NC(=O)c7nccn7C)cn6C)cn5C)cn4C)cn3C)cn2C)cn1C [Compound B-41] | 100 to 500 |
| CCCNC(=O)c1cc(NC(=O)c2cc(NC(=O)c3nc(NC(=O)c4nc(NC(=O)[C@@H](N)CCNC(=O)c5nc(NC(=O)CCNC(=O)c6cc(NC(=O)c7nccn7C)cn6C)cn5C)cn4C)cn3C)cn2C)cn1C [Compound B-64] | > 1000 |
| Cn1cc(NC(=O)c2nc(NC(=O)CCNC(=O)c3cc(NC(=O)c4nccn4C)cn3C)cn2C)cc1C(=O)NCCCC(=O)Nc1cn(C)c(C(=O)NCCC(=O)Nc2cc(C(=O)Nc3cn(C)c(C(=O)NCCC(=O)NCCOCCN4CCN(C5CCN(c6ccc([N+](=O)[O-])cc6)CC5)CC4)n3)n(C)c2)n1 [Compound B-26] | > 1000 |
| Cn1cc(NC(=O)c2nc(NC(=O)CCNC(=O)c3cc(NC(=O)c4nccn4C)cn3C)cn2C)cc1C(=O)NCCCC(=O)Nc1cn(C)c(C(=O)NCCC(=O)Nc2cc(C(=O)Nc3cn(C)c(C(=O)NCCC(=O)N4CCN(CC5CCNCC5)CC4)n3)n(C)c2)n1 [Compound B-114] | 500 to 1000 |
| COCCOCCOCCOCCOCCOCCOCCOCCN(CCOCCOCCOCCOCCOCCOCCOCCOC)C(=O)CCNC(=O)c1nc(NC(=O)c2cc(NC(=O)CCNC(=O)c3nc(NC(=O)CCCNC(=O)c4cc(NC(=O)c5nc(NC(=O)CCNC(=O)c6cc(NC(C)c7nccn7C)cn6C)cn5C)cn4C)cn3C)cn2C)cn1C (stereo not drawn) [Compound B-80] | > 1000 |
| Cn1cc(NC(=O)c2nc(NC(=O)CCNC(=O)c3cc(NC(=O)c4nccn4C)cn3C)cn2C)cc1C(=O)NCCCC(=O)Nc1cn(C)c(C(=O)NCCC(=O)Nc2cc(C(=O)Nc3cn(C)c(C(=O)NCCC(=O)N4CCC(N5CCN(CCOCCOCCOCCOCCN)CC5)CC4)n3)n(C)c2)n1 [Compound B-24] | > 1000 |
| CCCNC(=O)CCNC(=O)c1nc(NC(=O)c2cc(NC(=O)CCNC(=O)c3nc(NC(=O)CCCNC(=O)c4cc(NC(=O)c5nc(NC(=O)CCNC(=O)c6cc(NC(=O)c7nccn7C)cn6CCCCCCN=[N+]=[N-])cn5C)cn4C)cn3C)cn2C)cn1C [Compound B-60] | 100 to 500 |
| Cn1cc(NC(=O)c2nc(NC(=O)CCNC(=O)c3cc(NC(=O)c4nccn4C)cn3C)cn2C)cc1C(=O)NCCCC(=O)Nc1cn(C)c(C(=O)NCCC(=O)Nc2cc(C(=O)Nc3cn(C)c(C(=O)NCCOCCOCCOc4cncc(C(=O)O)c4)n3)n(C)c2)n1 [Compound B-216] | > 1000 |
| CCN(CC)CCCC[C@H](NC(=O)C(C)C)C(=O)NCCOCCOCCOCCOCCOCCNC(=O)CCNC(=O)c1nc(NC(=O)c2cc(NC(=O)CCNC(=O)c3nc(NC(=O)CCCNC(=O)c4cc(NC(=O)c5nc(NC(=O)CCNC(=O)c6cc(NC(=O)c7nccn7C)cn6C)cn5C)cn4C)cn3C)cn2C)cn1C [Compound B-89] | > 1000 |
| Cn1cc(NC(=O)c2nc(NC(=O)CCNC(=O)c3cc(NC(=O)c4nccn4C)cn3C)cn2C)cc1C(=O)NCCCC(=O)Nc1cn(C)c(C(=O)NCCC(=O)Nc2cc(C(=O)Nc3cn(C)c(C(=O)NCCC(=O)Nc4ccc(C(C)(C)C)cc4)n3)n(C)c2)n1 [Compound B-180] | > 1000 |
| CCN(CC)CCCC[C@@H](NC(C)=O)C(=O)NCCOCCOCCNC(=O)CCNC(=O)c1nc(NC(=O)CCNC(=O)c2cc(NC(=O)c3nc(NC(=O)CCCNC(=O)c4cc(NC(=O)c5nc(NC(=O)CCNC(=O)c6cc(NC(C)c7nccn7C)cn6C)cn5C)cn4C)cn3C)cn2C)cn1C (stereo partly drawn) [Compound B-97] | 100 to 500 |
| CCCNC(=O)c1cc(NC(=O)c2nc(NC(=O)CCNC(=O)c3cc(NC(=O)c4nc(NC(=O)[C@@H](CCNC(=O)c5cc(NC(=O)c6nc(NC(=O)CCNC(=O)c7cc(NC(=O)c8nccn8C)cn7C)cn6C)cn5C)NC(C)=O)cn4C)cn3C)cn2C)cn1C [Compound B-7] | 500 to 1000 |
| Cn1cc(NC(=O)c2nc(NC(=O)CCNC(=O)c3cc(NC(=O)c4nccn4C)cn3C)cn2C)cc1C(=O)NCCCC(=O)Nc1cn(C)c(C(=O)NCCC(=O)Nc2cc(C(=O)Nc3cn(C)c(C(=O)NCCC(=O)NCCCCCN4CCC(C#CC#CC5CCNCC5)CC4)n3)n(C)c2)n1 [Compound B-336] | > 1000 |
| CCCNC(=O)CCNC(=O)c1nc(NC(=O)c2cc(NC(=O)CCNC(=O)c3nc(NC(=O)CCCCNC(=O)c4cc(NC(=O)c5nc(NC(=O)CCNC(=O)c6cc(NC(=O)c7nccn7C)cn6C)cn5C)cn4C)cn3C)cn2C)cn1C [Compound B-317] | > 1000 |
| CC(=O)N1CCN(C2CCN(C(=O)CCNC(=O)c3nc(NC(=O)c4cc(NC(=O)CCNC(=O)c5nc(NC(=O)CCCNC(=O)c6cc(NC(=O)c7nc(NC(=O)CCNC(=O)c8cc(NC(=O)c9nccn9C)cn8C)cn7C)cn6C)cn5C)cn4C)cn3C)CC2)CC1 [Compound B-130] | 100 to 500 |
| CC(=O)N1CCC(NC(=O)CCNC(=O)c2nc(NC(=O)c3cc(NC(=O)CCNC(=O)c4nc(NC(=O)CCCNC(=O)c5cc(NC(=O)c6nc(NC(=O)CCNC(=O)c7cc(NC(=O)c8nccn8C)cn7C)cn6C)cn5C)cn4C)cn3C)cn2C)CC1 [Compound B-141] | > 1000 |
| COC(=O)c1cncc(OCCOCCOCCNC(=O)c2nc(NC(=O)c3cc(NC(=O)CCNC(=O)c4nc(NC(=O)CCCNC(=O)c5cc(NC(=O)c6nc(NC(=O)CCNC(=O)c7cc(NC(=O)c8nccn8C)cn7C)cn6C)cn5C)cn4C)cn3C)cn2C)c1 [Compound B-342] | 100 to 500 |

Same assay, conditions: Homo sapiens, Fibroblast; DM1 patient fibroblasts, foci per nucleus, 48 h treatment; read-out: DM1 EC50, 48 h

| Compound | EC50 [nM] |
| --- | --- |
| CCCNC(=O)c1nc(NC(=O)c2cc(NC(=O)CCNC(=O)c3nc(NC(=O)CC4(CNC(=O)c5cc(NC(=O)c6nc(NC(=O)CCNC(=O)c7cc(NC(=O)c8nccn8CC(F)(F)F)cn7C)cn6C)cn5C)CNC4)cn3C)cn2C)cn1C [Compound B-440] | 100 to 500 |

From patent US20250368628A1, “METHODS AND COMPOUNDS FOR MODULATING INHERITED GENETIC DISEASES” (Design Therapeutics, Inc., priority 2022, published 2025)
